According to PubChem BioAssay (NCI):
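Cells were grown in 96-well plates and exposed to each compound for 48 hours at five concentrations; endpoints were interpolated linearly between bracketing concentrations, or set to the highest concentration if not reached. GI50 is the concentration that inhibits growth by half. The concentration for full growth arrest is given as TGI.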

Tests used:
Test in all cases: NCI tumour cell line growth inhibition, 48 h
[1] = system: SK-MEL-5 melanoma
[2] = system: SF-295 CNS
[3] = system: NCI-H23 lung
[4] = system: RPMI-8226 leukemia
[5] = system: DU-145 prostate
[6] = system: HCT-116 colon
[7] = system: T-47D breast
[8] = system: 786-0 renal
[9] = system: HCC-2998 colon
[10] = system: EKVX NSCLC

SMILES | GI50 [1] [µM] | TGI [1] [µM] | GI50 [2] [µM] | TGI [2] [µM] | GI50 [3] [µM] | TGI [3] [µM] | GI50 [4] [µM] | TGI [4] [µM] | GI50 [5] [µM] | TGI [5] [µM] | GI50 [6] [µM] | TGI [6] [µM] | GI50 [7] [µM] | TGI [7] [µM] | GI50 [8] [µM] | TGI [8] [µM] | GI50 [9] [µM] | TGI [9] [µM] | GI50 [10] [µM] | TGI [10] [µM]
CCCCCCCOc1c(OC)cc(C2CC(=O)Nc3c2c(C)nn3-c2nc3ccccc3[nH]2)cc1OC (stereo not given) | 1.93 | 3.78 | 2.33 | 7.74 | 2.95 | 9.96 | 3.71 | > 100 | 4.66 | > 100 | 3.49 | > 100 | 3.95 | > 100 | 3.61 | 21.8 | 74.1 | > 100 | 2.54 | 8.15
CCCOc1nc(SCCC)nc2c1cnn2-c1ccccc1 | > 100 | > 100 | 31.8 | > 100 | > 100 | > 100 | 70.9 | > 100 | > 100 | > 100 | 55.3 | > 100 | > 100 | > 100 | > 100 | > 100 | > 100 | > 100 | 39.1 | > 100
O=C(COc1cccc(/C=C2\COc3ccc(Cl)cc3C2=O)c1)c1ccc(Cl)cc1 | 12.8 | 25.3 | 24.9 | 39.6 | 13.4 | 26.4 | 2 | 5.14 | 14.7 | 27.8 | 3.28 | 11.3 | 11.4 | 26.1 | 16.1 | 29.7 | 3.71 | 15.1 | 12.5 | 25.8
O=C(OCCBr)c1ccc(Cl)c([N+](=O)[O-])c1 | 14.9 | 28.5 | 15.5 | 30.5 | 11.2 | 27.2 | 7.09 | 19 | 2.31 | 5.27 | 14.3 | 30.4 | 2.29 | 5.49 | 18.6 | 34.1 | 1.91 | 3.67 | 18.4 | 37.1
Nc1n[nH]c2cccc(C#Cc3cccc(C(=O)Nc4cc(CN5CCOCC5)cc(C(F)(F)F)c4)c3)c12 | 4.34 | 16 | 3.46 | 14.2 | 3.56 | 18.8 | 3.19 | 27.3 | 9.82 | 23.8 | 2 | 11.1 | 2.23 | 10.2 | 3.97 | 15 | 3.3 | 12.2 | 5.58 | 19.9
C/C=C/[C@@H]1OC(=O)C2=C[C@@H](O)[C@@H](/C=C/C)O[C@H]21 | 9.03 | 23.8 | 18 | 44.8 | 3.08 | 23.3 | 1.14 | 3.76 | 0.989 | 4.83 | 1.3 | 3.94 | 3.3 | 13 | 2.53 | 8.36 | 28.3 | 55 | 7.26 | 21.2
COc1cc(C2CC(c3ccc(N(C)C)cc3)=NN2C(C)=O)cc(OC)c1OC (stereo not given) | 0.804 | 17.6 | 0.374 | > 100 | 4.33 | > 67 | 3.77 | > 39.3 | 2.29 | > 35 | 1.22 | > 45.4 | > 24.7 | > 100 | 2.36 | > 78 | 2.61 | 27.1 | 5.53 | > 100
COCCNc1cc(NC(=O)N2CCCc3cc(CN4CCN(C)CC4=O)c(C=O)nc32)ncc1C#N | > 50 | > 50 | > 50 | > 50 | > 50 | > 50 | 42.4 | > 50 | > 50 | > 50 | 25.6 | > 50 | 46.5 | > 50 | 29.5 | > 50 | > 50 | > 50 | > 50 | > 50
CN(C(=O)c1ccncc1)c1ccccc1 |  | > 100 |  | > 100 |  | > 100 |  | > 100 |  | > 100 |  | > 100 |  | > 100 |  | > 100 |  | > 100 |  | > 100
Cn1ccnc1C(=O)/C=C/c1ccc(CC(=O)Nc2ccc(C(F)(F)F)cc2)cc1 | 3.83 | 11.2 | 2.56 | 5.17 | 3.28 | 6.9 | 0.869 | 5.17 | 2.97 | 6.42 | 2.4 | 4.94 | 5.95 | > 16.7 | 1.81 | 4.07 | 2.87 | 5.44 | 3.07 | 8.49
CS(=O)(=O)Nc1ccc(N=Cc2c(O)[nH]c3ccccc23)cc1 | > 25 | > 25 | > 25 | > 25 | > 25 | > 25 | > 25 | > 25 | > 25 | > 25 | > 25 | > 25 | > 25 | > 25 | > 25 | > 25 | > 25 | > 25 | > 25 | > 25
CN(C)CC1CCCCCC(CN(C)C)C1=O (stereo not given) | 12.2 | 25.1 | 19.7 | 47.2 | 8.94 | 27 | 3.15 | 13.9 | 3.19 | 12.4 | 1.07 | 3.91 | 2.12 | 12.5 | 12.8 | 33.2 | 17.1 | 33.3 | 12.5 | 37.3
Cc1[nH]c2ccccc2c1CCNCc1ccc(/C=C/C(=O)NO)cc1 | < 0.0113 | 0.0275 | 0.0146 | 0.0563 | 0.0246 | 0.15 | < 0.0123 | 0.595 | < 0.01 | 0.0532 | < 0.01 | 0.0142 | < 0.01 | 0.0344 | 0.0275 | 0.49 | 0.0121 | 0.0353 | 0.023 | 1.5
O=C(N/N=C/c1cc([N+](=O)[O-])ccc1O)c1cccc2ccccc12 | 3.15 | 14.3 | 2.77 | 20.9 | 4.68 | > 100 | 3.35 | 62.2 | 6.2 | > 100 | 2.56 | > 100 | 3.28 | 23.3 | 3.29 | 27.7 | 5.3 | > 100 | 3.8 | 29.7
CCCCN(CCCC)c1ccc(C(=NC(C)CCCN(CC)CC)c2ccc(N(C)C)cc2)cc1 (stereo not given) | 0.806 | 1.5 | 0.88 | 1.73 | 0.889 | 1.93 | 0.95 | 2.19 | 1.57 | 6.04 | 0.537 | 1.27 | 0.809 | 1.89 | 0.705 | 1.43 | 0.922 | 1.77 | 1.05 | 2.95
CCN1C(=O)N(CC)C2C1NN=c1s/c(=C\c3cc4ccccc4[nH]3)c(=O)n12 (stereo not given) | 0.0202 | 0.063 | < 0.0112 | 14.8 | 0.0445 | > 76.9 | < 0.0185 | 2.19 | 0.0225 | > 100 | < 0.01 | > 37.2 | 0.0348 | 5.94 | 0.0387 | 22.3 | 0.0382 | > 100 | 0.0453 | > 100
CC(C)N1C(NNC(=O)c2cnccn2)=NS(=O)(=O)c2ccccc21 | > 100 | > 100 | > 100 | > 100 | > 100 | > 100 | > 100 | > 100 | > 100 | > 100 | > 100 | > 100 | > 100 | > 100 | > 100 | > 100 | > 100 | > 100 | > 100 | > 100
N=C(N)c1ccc(COc2ccccc2OCc2ccc(C(=N)N)cc2)cc1 | 17.1 | 44.5 | 24.1 | 82.4 | 49.4 | > 100 | 16.6 | 99.3 | 18.7 | 45.8 | 35.2 | > 100 | 58.4 | > 100 | 29.8 | > 100 | 86.8 | > 100 | 38.5 | > 100
Clc1nc(Cl)c(-c2ccccc2)c(Cl)n1 |  | 9.36 |  | 27.2 |  | 12 |  | 6.16 |  | 26.4 |  | 3.6 |  | 9.28 |  | 6.55 |  | 5.32 |  | 3.46
